Experimental data from PubChem BioAssay (NCI).
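Grown in 96-well plates, cells were treated for 48 hours with each compound at five concentrations. Insufficient inhibition: endpoint recorded as highest concentration tested. GI50 = concentration required for 50% inhibition of growth. TGI is the concentration that stops growth completely.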

Assays:
Experiment in all cases: growth of human tumour cells (NCI), 48 h
[1] = tested on: BT-549 breast
[2] = tested on: UACC-257 melanoma
[3] = tested on: OVCAR-3 ovarian
[4] = tested on: SF-268 CNS
[5] = tested on: SK-MEL-5 melanoma
[6] = tested on: MDA-MB-468 breast
[7] = tested on: MDA-MB-231 breast
[8] = tested on: SR leukemia
[9] = tested on: NCI/ADR-RES ovarian
[10] = tested on: SF-295 CNS
[11] = tested on: MOLT-4 leukemia
[12] = tested on: A498 renal
[13] = tested on: DU-145 prostate
[14] = tested on: M14 melanoma
[15] = tested on: NCI-H23 lung
[16] = tested on: K-562 leukemia
[17] = tested on: SNB-75 CNS
[18] = tested on: KM12 colon
[19] = tested on: MCF7 breast
[20] = tested on: COLO 205 colon
[21] = tested on: RXF 393 renal
[22] = tested on: NCI-H522 lung
[23] = tested on: HCC-2998 colon
[24] = tested on: NCI-H226 lung
[25] = tested on: OVCAR-5 ovarian
[26] = tested on: SNB-19 CNS
[27] = tested on: SW-620 colon
[28] = tested on: LOX IMVI melanoma
[29] = tested on: 786-0 renal
[30] = tested on: U251 CNS
[31] = tested on: UO-31 renal
[32] = tested on: HT29 colon
[33] = tested on: TK-10 renal
[34] = tested on: HOP-62 NSCLC
[35] = tested on: HCT-116 colon
[36] = tested on: SK-MEL-28 melanoma
[37] = tested on: T-47D breast
[38] = tested on: RPMI-8226 leukemia
[39] = tested on: A549 NSCLC
[40] = tested on: SK-OV-3 ovarian
[41] = tested on: HS 578T breast
[42] = tested on: SF-539 CNS
[43] = tested on: MDA-MB-435
[44] = tested on: ACHN renal
[45] = tested on: EKVX NSCLC
[46] = tested on: PC-3 prostate
[47] = tested on: CCRF-CEM leukemia
[48] = tested on: CAKI-1 renal
[49] = tested on: IGROV1 ovarian
[50] = tested on: SK-MEL-2 melanoma
[51] = tested on: OVCAR-4 ovarian
[52] = tested on: HL-60(TB) leukemia
[53] = tested on: HCT-15 colon
[54] = tested on: MALME-3M melanoma
[55] = tested on: SN12C renal
[56] = tested on: NCI-H460 lung
[57] = tested on: HOP-92 NSCLC
[58] = tested on: UACC-62 melanoma
[59] = tested on: OVCAR-8 ovarian

Nc1nnc(-c2c[nH]c3ncc(Br)cc23)c(-c2c[nH]c3ccc(Br)cc23)n1
GI50 [1]: 2.71 µM
TGI [1]: 12 µM
GI50 [2]: 12.4 µM
TGI [2]: 29.7 µM
GI50 [3]: 3 µM
TGI [3]: 12.7 µM
GI50 [4]: 8.72 µM
TGI [4]: 34 µM
GI50 [5]: 3.06 µM
TGI [5]: 13.9 µM
GI50 [6]: 1.57 µM
TGI [6]: 8.83 µM
GI50 [7]: 13.1 µM
TGI [7]: 32.5 µM
GI50 [8]: 0.378 µM
TGI [8]: 14.8 µM
GI50 [9]: 13.4 µM
TGI [9]: 36.4 µM
GI50 [10]: 5.4 µM
TGI [10]: 20.8 µM
GI50 [11]: 1.89 µM
TGI [11]: 12.7 µM
GI50 [12]: 13.7 µM
TGI [12]: 29 µM
GI50 [13]: 7.24 µM
TGI [13]: 21.1 µM
GI50 [14]: 4.67 µM
TGI [14]: 22.2 µM
GI50 [15]: 11.3 µM
TGI [15]: 26.2 µM
GI50 [16]: 0.497 µM
TGI [16]: 16.8 µM
GI50 [17]: 1.56 µM
TGI [17]: 8.26 µM
GI50 [18]: 6.18 µM
TGI [18]: 23.6 µM
GI50 [19]: 0.92 µM
TGI [19]: 18.5 µM
GI50 [20]: 3.35 µM
TGI [20]: 14.9 µM
GI50 [21]: 1.78 µM
TGI [21]: 7.03 µM
GI50 [22]: 0.403 µM
TGI [22]: 15.3 µM
GI50 [23]: 14 µM
TGI [23]: 28.9 µM
GI50 [24]: 3.77 µM
TGI [24]: 26.9 µM
GI50 [25]: 10.8 µM
TGI [25]: 27.3 µM
GI50 [26]: 10.9 µM
TGI [26]: 33.7 µM
GI50 [27]: 5.32 µM
TGI [27]: 27.2 µM
GI50 [28]: 5.39 µM
TGI [28]: 23.3 µM
GI50 [29]: 8.24 µM
TGI [29]: 23.2 µM
GI50 [30]: 10.1 µM
TGI [30]: 29.7 µM
GI50 [31]: 4.58 µM
TGI [31]: 20.7 µM
GI50 [32]: 5.74 µM
TGI [32]: 26 µM
GI50 [33]: 15.1 µM
TGI [33]: 33.5 µM
GI50 [34]: 5.26 µM
TGI [34]: 20.2 µM
GI50 [35]: 3.82 µM
TGI [35]: 18.9 µM
GI50 [36]: 10.5 µM
TGI [36]: 24.4 µM
GI50 [37]: 4.16 µM
TGI [37]: 26.2 µM
GI50 [38]: 4.68 µM
TGI [38]: 50.4 µM
GI50 [39]: 10.9 µM
TGI [39]: 44.5 µM
GI50 [40]: 10.6 µM
TGI [40]: 24.4 µM
GI50 [41]: 4.47 µM
TGI [41]: 28.8 µM
GI50 [42]: 3.48 µM
TGI [42]: 17.2 µM
GI50 [43]: 0.379 µM
TGI [43]: 16.1 µM
GI50 [44]: 6.04 µM
TGI [44]: 19.6 µM
GI50 [45]: 10.2 µM
TGI [45]: 26.3 µM
GI50 [46]: 3.6 µM
TGI [46]: 22.4 µM
GI50 [47]: 2.33 µM
TGI [47]: > 100 µM
GI50 [48]: 4.02 µM
TGI [48]: 17.9 µM
GI50 [49]: 6.29 µM
TGI [49]: 24.4 µM
GI50 [50]: 6.31 µM
TGI [50]: 23.1 µM
GI50 [51]: 5.78 µM
TGI [51]: 21.7 µM
GI50 [52]: 1.99 µM
TGI [52]: 16.3 µM
GI50 [53]: 4.41 µM
TGI [53]: 19.1 µM
GI50 [54]: 4.61 µM
TGI [54]: 25.8 µM
GI50 [55]: 7.31 µM
TGI [55]: 23.6 µM
GI50 [56]: 5.14 µM
TGI [56]: 24.4 µM
GI50 [57]: 4.06 µM
TGI [57]: 24.3 µM
GI50 [58]: 3.79 µM
TGI [58]: 18.8 µM
GI50 [59]: 10.4 µM
TGI [59]: 30.4 µM
